Our source for the Ki and Km values is ChEMBL document CHEMBL1137921, “Substrate analogs for the investigation of deoxyxylulose 5-phosphate reductoisomerase inhibition: synthesis and evaluation” (Bioorg Med Chem Lett, 2004).

T1: 1-deoxy-D-xylulose 5-phosphate reductoisomerase (Synechocystis sp. (strain PCC 6803 / Kazusa), UniProt Q55663)
T1 sequence (Q55663 whole entry): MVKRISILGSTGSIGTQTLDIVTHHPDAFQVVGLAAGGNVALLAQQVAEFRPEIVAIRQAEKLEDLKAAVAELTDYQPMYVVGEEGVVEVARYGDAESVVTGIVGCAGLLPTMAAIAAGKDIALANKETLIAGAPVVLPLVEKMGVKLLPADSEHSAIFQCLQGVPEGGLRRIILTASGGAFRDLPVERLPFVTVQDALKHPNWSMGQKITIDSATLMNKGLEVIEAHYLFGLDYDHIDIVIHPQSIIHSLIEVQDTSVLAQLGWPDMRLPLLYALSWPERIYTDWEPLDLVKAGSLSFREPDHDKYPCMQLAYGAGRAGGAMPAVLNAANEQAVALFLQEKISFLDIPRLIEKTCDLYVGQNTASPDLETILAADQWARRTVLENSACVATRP

T2: 1-deoxy-D-xylulose 5-phosphate reductoisomerase (Escherichia coli K-12, UniProt P45568)
T2 sequence (P45568 whole entry): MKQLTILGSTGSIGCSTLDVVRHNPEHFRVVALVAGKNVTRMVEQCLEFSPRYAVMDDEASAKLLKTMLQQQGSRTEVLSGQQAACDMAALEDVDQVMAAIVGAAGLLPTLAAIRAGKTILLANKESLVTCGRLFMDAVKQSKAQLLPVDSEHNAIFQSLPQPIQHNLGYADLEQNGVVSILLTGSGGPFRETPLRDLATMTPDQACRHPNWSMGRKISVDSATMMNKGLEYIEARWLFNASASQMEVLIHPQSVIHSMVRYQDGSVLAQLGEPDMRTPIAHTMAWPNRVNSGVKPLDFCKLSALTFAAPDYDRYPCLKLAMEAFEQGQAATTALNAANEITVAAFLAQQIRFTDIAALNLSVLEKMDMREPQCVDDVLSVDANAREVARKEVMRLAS

B1: 1-deoxy-D-xylulose 5-phosphate reductoisomerase (Synechocystis sp. (strain PCC 6803 / Kazusa)), Q55663 (protein)
chain: T1 sequence (Q55663 whole entry)

The target of the first data set is T1, 1-deoxy-D-xylulose 5-phosphate reductoisomerase. Description: Binding affinity against Synechocystis strain PCC6803 DXP reductoisomerase.
Details: not given
Set-up: species or system Synechocystis sp. PCC 6803.
In the case of `CCC(=O)[C@@H](O)[C@H](O)COP(=O)(O)O`, the Ki (in general, a dissociation constant, usually derived from enzyme kinetics or from competition with a known ligand) was 630 µM.
`CC(=O)C[C@H](O)COP(=O)(O)O` displayed a Ki of 150 µM. This Ki is about 4.2-fold lower than that of the molecule before.
Still for that read-out and setting: the figure for `CC(=O)[C@@H](O)[C@@H](O)COP(=O)(O)O` is 180 µM; for `CC(=O)[C@@H](O)CCOP(=O)(O)O` it is 30 µM; for `O=CN(O)CCCP(=O)(O)O` [FOSMIDOMYCIN] it is 0.021 µM.
The molecule `NC(=O)[C@@H](O)[C@H](O)COP(=O)(O)O` gave a Ki of 90 µM.

Substrate in a further data set: CC(=O)[C@@H](O)[C@H](O)CCP(=O)(O)O
Description: Michaelis-Menten constant for Synechocystis strain PCC6803 DXP reductoisomerase. The conditions noted are these: Synechocystis sp. PCC 6803.
As for B1, the Km (in general, the substrate concentration at which the rate is half of its maximum) stood at 690 µM.

The target in another data set is T2, 1-deoxy-D-xylulose 5-phosphate reductoisomerase. Description: Inhibitory activity against Escherichia coli deoxyxylulose 5-phosphate reductoisomerase.
Details: not given
Molecule `CC(=O)C[C@H](O)COP(=O)(O)O` came in with a Ki of 800 µM.
Take `CC(=O)[C@@H](O)CCOP(=O)(O)O`: the Ki was found to be 120 µM.
